Assay results reported in patent US20230265151A1, “GIP/GLP1 CO-AGONIST COMPOUNDS” (priority 2020, published 2023).
Like-named read-outs stand apart in the source and are kept apart here. *1 amine or outer side, *2 acyl side, *3 side chain or, on linkers, in order; H or OH if unused. Where a SMILES comes first, the peptide text is derived from it. Side-chain parts run from the residue outwards. [ ]: non-standard residue; d: D form. The star is where a group is joined. αMePhe(2-F) = C[C@](N)(Cc1ccccc1F)C(=O)O; γGlu = O=C(O)[C@H](CCC(=O)[*:2])N[*:1]; C14 diacid = O=C(O)CCCCCCCCCCCCC(=O)*; αMeY = C[C@](N)(Cc1ccc(O)cc1)C(=O)O; αMeL = CC(C)C[C@](C)(N)C(=O)O; Orn = NCCC[C@H](N)C(=O)O; AEEA = NCCOCCOCC(=O)O; Aib = CC(C)(N)C(=O)O

Key:
Assay type in all cases: cell-based
[1] = target: hGLP-1R (Homo sapiens, UniProt P43220); assay: Functional cAMP formation (HTRF) in HEK-293 clonal cells expressing hGLP-1R, 0.1% bovine casein, without or with 1.0% human serum albumin; design: expressed in transfected cells; settings: for EC50: geometric mean, read-out: hGLP-1R EC50, nM (SEM, n); for Emax: read-out: hGLP-1R Emax, % ± SEM
Summary of the method: (§1)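 Cells were stimulated with peptide for 30 min at 37° C, then intracellular cAMP was measured by competitive HTRF (665/620 nm ratio) and converted to nM using a cAMP standard curve. Relative EC50 and Emax came from four-parameter logistic fits of percent maximal response against peptide concentration.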

[2] = target: T1, hGCGR (Homo sapiens, UniProt P47871); assay: Functional cAMP formation (HTRF) in HEK-293 clonal cells expressing hGCGR, 0.1% bovine casein, without or with 1.0% human serum albumin; settings: geometric mean, read-out: hGCGR EC50, nM (SEM, n)
T1 construct: expressed in transfected cells
Summary of the method: as §1

[3] = target: T2, hGIPR (Homo sapiens, UniProt P48546); assay: Functional cAMP formation (HTRF) in HEK-293 clonal cells expressing hGIPR, 0.1% bovine casein, without or with 1.0% human serum albumin; settings: for Emax: read-out: hGIPR Emax, % ± SEM; for EC50: geometric mean, read-out: hGIPR EC50, nM (SEM, n)
T2 construct: expressed in transfected cells
T2 sequence (P48546 22-466): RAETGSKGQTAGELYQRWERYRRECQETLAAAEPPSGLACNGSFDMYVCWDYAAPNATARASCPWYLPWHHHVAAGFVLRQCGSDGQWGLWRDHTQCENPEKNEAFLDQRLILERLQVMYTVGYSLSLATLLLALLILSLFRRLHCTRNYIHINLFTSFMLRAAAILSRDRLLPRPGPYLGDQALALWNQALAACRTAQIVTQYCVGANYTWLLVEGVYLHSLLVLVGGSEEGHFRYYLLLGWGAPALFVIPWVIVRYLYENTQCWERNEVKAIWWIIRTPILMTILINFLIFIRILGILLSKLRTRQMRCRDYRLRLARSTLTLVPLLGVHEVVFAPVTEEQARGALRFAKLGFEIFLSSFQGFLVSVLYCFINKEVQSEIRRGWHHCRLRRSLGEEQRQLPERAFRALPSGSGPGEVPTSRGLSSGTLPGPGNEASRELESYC
Summary of the method: as §1

[4] = 0.1% bovine casein and 1.0% human serum albumin, 37° C.
[5] = cAMP, incubated at 37° C., 0.1% bovine casein (no human serum albumin)
[6] = HEK293, 0.1% bovine casein and 1.0% human serum albumin, 37° C., percent of maximal response to GIP(1-42)NH2
[7] = HEK293, percent of maximal response to GIP(1-42)NH2, 37° C., 0.1% bovine casein, arithmetic mean
[8] = HEK293, 0.1% bovine casein and 1.0% human serum albumin, 37° C., percent of maximal response to GLP-1(7-36)NH2
[9] = HEK293, percent of maximal response to GLP-1(7-36)NH2, 37° C., 0.1% bovine casein, arithmetic mean

Chain of hGLP-1R (P43220 24-463): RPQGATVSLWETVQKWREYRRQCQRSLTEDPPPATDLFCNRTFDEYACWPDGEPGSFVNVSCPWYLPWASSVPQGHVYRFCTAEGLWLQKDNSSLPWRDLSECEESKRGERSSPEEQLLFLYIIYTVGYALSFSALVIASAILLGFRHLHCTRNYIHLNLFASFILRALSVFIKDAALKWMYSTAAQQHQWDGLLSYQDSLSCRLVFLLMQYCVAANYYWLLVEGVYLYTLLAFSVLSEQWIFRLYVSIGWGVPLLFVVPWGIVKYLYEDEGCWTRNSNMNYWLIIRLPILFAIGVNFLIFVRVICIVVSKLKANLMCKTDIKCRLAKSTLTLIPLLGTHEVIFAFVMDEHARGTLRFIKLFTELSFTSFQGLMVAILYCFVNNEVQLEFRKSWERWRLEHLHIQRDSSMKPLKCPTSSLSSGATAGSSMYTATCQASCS
T1 sequence (P47871 26-477): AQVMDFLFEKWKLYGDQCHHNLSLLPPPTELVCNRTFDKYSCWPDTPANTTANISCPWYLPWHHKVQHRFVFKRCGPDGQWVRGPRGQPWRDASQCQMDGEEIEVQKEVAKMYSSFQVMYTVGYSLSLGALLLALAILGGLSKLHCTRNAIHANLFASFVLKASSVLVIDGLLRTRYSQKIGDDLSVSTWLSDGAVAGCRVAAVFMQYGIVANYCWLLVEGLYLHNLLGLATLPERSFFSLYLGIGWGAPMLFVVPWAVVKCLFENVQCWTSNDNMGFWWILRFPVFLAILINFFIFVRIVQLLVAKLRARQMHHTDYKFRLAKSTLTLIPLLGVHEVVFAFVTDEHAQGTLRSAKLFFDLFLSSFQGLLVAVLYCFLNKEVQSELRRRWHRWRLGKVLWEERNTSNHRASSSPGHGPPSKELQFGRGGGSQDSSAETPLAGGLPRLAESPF

Compound	EC50 [1, 4] [nM]	EC50 [1, 5] [nM]	EC50 [2, 4] [nM]	EC50 [2, 5] [nM]	Emax [3, 6] [%]	Emax [3, 7] [%]	EC50 [3, 5] [nM]	Emax [1, 8] [%]	EC50 [3, 4] [nM]	Emax [1, 9] [%]
CC[C@H](C)[C@H](NC(=O)[C@H](CC(C)C)NC(=O)[C@](C)(Cc1ccc(O)cc1)NC(=O)[C@@H](CCC(=O)O)NC(=O)[C@@H](NC(=O)[C@H](Cc1ccccc1)NC(=O)[C@H](CCC(=O)O)NC(=O)C(C)(C)NC(=O)[C@H](CCC(N)=O)NC(=O)[C@H](C)NC(=O)[C@H](CCCCNC(=O)COCCOCCNC(=O)COCCOCCNC(=O)CC[C@H](NC(=O)CCCCCCCCCCCCC(=O)O)C(=O)O)NC(=O)[C@H](CCCN)NC(=O)[C@H](CC(=O)O)NC(=O)[C@H](CC(C)C)NC(=O)[C@](C)(CC(C)C)NC(=O)[C@@H](NC(=O)[C@H](CO)NC(=O)[C@H](Cc1ccc(-c2ccccc2)cc1)NC(=O)[C@H](CC(=O)O)NC(=O)[C@H](CO)NC(=O)[C@@H](NC(=O)[C@](C)(Cc1ccccc1F)NC(=O)[C@@H](NC(=O)CNC(=O)[C@H](CCC(=O)O)NC(=O)C(C)(C)NC(=O)[C@@H](N)Cc1ccc(O)cc1)[C@@H](C)O)[C@@H](C)O)[C@@H](C)CC)[C@@H](C)CC)C(=O)N[C@@H](CCC(=O)O)C(=O)NCC(=O)NCC(=O)N[C@@H](CCCCNC(=O)COCCOCCNC(=O)COCCOCCNC(=O)CC[C@H](NC(=O)CCCCCCCCCCCCC(=O)O)C(=O)O)C(=O)N[C@@H](CO)C(=O)N[C@@H](CO)C(=O)NCC(=O)N[C@@H](C)C(=O)N1CCC[C@H]1C(=O)N1CCC[C@H]1C(=O)N1CCC[C@H]1C(=O)N[C@@H](CO)C(N)=O [Example 55]	70.5	0.154	> 9950	> 9950	85.7 ± 0.885	97.1 ± 2.16	0.0207			
CC[C@H](C)[C@H](NC(=O)[C@H](CC(C)C)NC(=O)[C@](C)(Cc1ccc(O)cc1)NC(=O)[C@@H](CCC(=O)O)NC(=O)[C@@H](NC(=O)[C@H](Cc1ccccc1)NC(=O)[C@H](CCC(=O)O)NC(=O)C(C)(C)NC(=O)[C@H](CCC(N)=O)NC(=O)[C@H](C)NC(=O)[C@H](CCCCNC(=O)COCCOCCNC(=O)COCCOCCNC(=O)CC[C@H](NC(=O)CCCCCCCCCCCCC(=O)O)C(=O)O)NC(=O)[C@H](CCCN)NC(=O)[C@H](CC(=O)O)NC(=O)[C@H](CC(C)C)NC(=O)[C@](C)(CC(C)C)NC(=O)[C@@H](NC(=O)[C@H](CO)NC(=O)[C@H](Cc1cccc2ccccc12)NC(=O)[C@H](CC(=O)O)NC(=O)[C@H](CO)NC(=O)[C@@H](NC(=O)[C@](C)(Cc1ccccc1F)NC(=O)[C@@H](NC(=O)CNC(=O)[C@H](CCC(=O)O)NC(=O)C(C)(C)NC(=O)[C@@H](N)Cc1ccc(O)cc1)[C@@H](C)O)[C@@H](C)O)[C@@H](C)CC)[C@@H](C)CC)C(=O)N[C@@H](CCC(=O)O)C(=O)NCC(=O)NCC(=O)N[C@@H](CCCCNC(=O)COCCOCCNC(=O)COCCOCCNC(=O)CC[C@H](NC(=O)CCCCCCCCCCCCC(=O)O)C(=O)O)C(=O)N[C@@H](CO)C(=O)N[C@@H](CO)C(=O)NCC(=O)N[C@@H](C)C(=O)N1CCC[C@H]1C(=O)N1CCC[C@H]1C(=O)N1CCC[C@H]1C(=O)N[C@@H](CO)C(N)=O [Example 56]			> 9950	> 9950	91.4 ± 1.04	90.3 ± 2.57	0.0138	123 ± 6.57		
CC[C@H](C)[C@H](NC(=O)[C@H](CC(C)C)NC(=O)[C@](C)(Cc1ccc(O)cc1)NC(=O)[C@@H](CCC(=O)O)NC(=O)[C@@H](NC(=O)[C@H](Cc1ccccc1)NC(=O)[C@H](CCC(=O)O)NC(=O)C(C)(C)NC(=O)[C@H](CCC(N)=O)NC(=O)[C@H](C)NC(=O)[C@H](CCCCNC(=O)COCCOCCNC(=O)COCCOCCNC(=O)CC[C@H](NC(=O)CCCCCCCCCCCCC(=O)O)C(=O)O)NC(=O)[C@H](CCCN)NC(=O)[C@H](CC(=O)O)NC(=O)[C@H](CC(C)C)NC(=O)[C@](C)(CC(C)C)NC(=O)[C@@H](NC(=O)[C@H](CO)NC(=O)[C@H](Cc1ccc(OC)cc1)NC(=O)[C@H](CC(=O)O)NC(=O)[C@H](CO)NC(=O)[C@@H](NC(=O)[C@](C)(Cc1ccccc1F)NC(=O)[C@@H](NC(=O)CNC(=O)[C@H](CCC(=O)O)NC(=O)C(C)(C)NC(=O)[C@@H](N)Cc1ccc(O)cc1)[C@@H](C)O)[C@@H](C)O)[C@@H](C)CC)[C@@H](C)CC)C(=O)N[C@@H](CCC(=O)O)C(=O)NCC(=O)NCC(=O)N[C@@H](CCCCNC(=O)COCCOCCNC(=O)COCCOCCNC(=O)CC[C@H](NC(=O)CCCCCCCCCCCCC(=O)O)C(=O)O)C(=O)N[C@@H](CO)C(=O)N[C@@H](CO)C(=O)NCC(=O)N[C@@H](C)C(=O)N1CCC[C@H]1C(=O)N1CCC[C@H]1C(=O)N1CCC[C@H]1C(=O)N[C@@H](CO)C(N)=O [Example 58] (H-Y[Aib]EGT[αMePhe(2-F)]TSDY(Me)SI[αMeL]LD[Orn]K([AEEA-AEEA-γGlu-C14 diacid])AQ[Aib]EFI[dE][αMeY]LIEGGK([AEEA-AEEA-γGlu-C14 diacid])SSGAPPPS-NH2)		0.194	> 9950	> 9950	92.2 ± 7.4	89.2 ± 5.96	0.0158		1.12	
CC[C@H](C)[C@H](NC(=O)[C@H](CC(C)C)NC(=O)[C@](C)(Cc1ccc(O)cc1)NC(=O)[C@@H](CCC(=O)O)NC(=O)[C@@H](NC(=O)[C@H](Cc1ccccc1Cl)NC(=O)[C@H](CCC(=O)O)NC(=O)C(C)(C)NC(=O)[C@H](CCC(N)=O)NC(=O)[C@H](C)NC(=O)[C@H](CCCCNC(=O)COCCOCCNC(=O)COCCOCCNC(=O)CC[C@H](NC(=O)CCCCCCCCCCCCC(=O)O)C(=O)O)NC(=O)[C@H](CCCN)NC(=O)[C@H](CC(=O)O)NC(=O)[C@H](CC(C)C)NC(=O)[C@](C)(CC(C)C)NC(=O)[C@@H](NC(=O)[C@H](CO)NC(=O)[C@H](Cc1ccncc1)NC(=O)[C@H](CC(=O)O)NC(=O)[C@H](CO)NC(=O)[C@@H](NC(=O)[C@](C)(Cc1ccccc1F)NC(=O)[C@@H](NC(=O)CNC(=O)[C@H](CCC(=O)O)NC(=O)C(C)(C)NC(=O)[C@@H](N)Cc1ccc(O)cc1)[C@@H](C)O)[C@@H](C)O)[C@@H](C)CC)[C@@H](C)CC)C(=O)N[C@@H](CCC(=O)O)C(=O)NCC(=O)NCC(=O)N[C@@H](CCCCNC(=O)COCCOCCNC(=O)COCCOCCNC(=O)CC[C@H](NC(=O)CCCCCCCCCCCCC(=O)O)C(=O)O)C(=O)N[C@@H](CO)C(=O)N[C@@H](CO)C(=O)NCC(=O)N[C@@H](C)C(=O)N1CCC[C@H]1C(=O)N1CCC[C@H]1C(=O)N1CCC[C@H]1C(=O)N[C@@H](CO)C(N)=O [Example 61]			> 9950	> 9950	92.8	88.2	0.012	89.7		82.9
CC[C@H](C)[C@H](NC(=O)[C@H](CC(C)C)NC(=O)[C@](C)(Cc1ccc(O)cc1)NC(=O)[C@@H](CCC(=O)O)NC(=O)[C@@H](NC(=O)[C@H](Cc1ccccc1F)NC(=O)[C@H](CCC(=O)O)NC(=O)C(C)(C)NC(=O)[C@H](CCC(N)=O)NC(=O)[C@H](C)NC(=O)[C@H](CCCCNC(=O)COCCOCCNC(=O)COCCOCCNC(=O)CC[C@H](NC(=O)CCCCCCCCCCCCC(=O)O)C(=O)O)NC(=O)[C@H](CCCN)NC(=O)[C@H](CC(=O)O)NC(=O)[C@H](CC(C)C)NC(=O)[C@](C)(CC(C)C)NC(=O)[C@@H](NC(=O)[C@H](CO)NC(=O)[C@H](Cc1ccncc1)NC(=O)[C@H](CC(=O)O)NC(=O)[C@H](CO)NC(=O)[C@@H](NC(=O)[C@](C)(Cc1ccccc1F)NC(=O)[C@@H](NC(=O)CNC(=O)[C@H](CCC(=O)O)NC(=O)C(C)(C)NC(=O)[C@@H](N)Cc1ccc(O)cc1)[C@@H](C)O)[C@@H](C)O)[C@@H](C)CC)[C@@H](C)CC)C(=O)N[C@@H](CCC(=O)O)C(=O)NCC(=O)NCC(=O)N[C@@H](CCCCNC(=O)COCCOCCNC(=O)COCCOCCNC(=O)CC[C@H](NC(=O)CCCCCCCCCCCCC(=O)O)C(=O)O)C(=O)N[C@@H](CO)C(=O)N[C@@H](CO)C(=O)NCC(=O)N[C@@H](C)C(=O)N1CCC[C@H]1C(=O)N1CCC[C@H]1C(=O)N1CCC[C@H]1C(=O)N[C@@H](CO)C(N)=O [Example 63]			> 9950	> 9950			0.0176	98	0.771	90.6
